Values joined by “and” are separate entries in the source; they are usually repeats but may differ in a detail not shown here. Equal entries are not always repeated. Inconclusive results and toxic doses are left out. Rule as the data show it: active = T/C of 150% or more; inactive = T/C below 125%.
Tested on: L1210 leukemia ip in BDF1 mice, survival T/C
Assay: NCI In Vivo Anticancer Drug Screen. Data for tumor model L1210 Leukemia (intraperitoneal) in B6D2F1 (BDF1) mice
Settings: endpoint: mean survival time, higher = longer survival
How it was run: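 Read-out is survival time, reported as the treated-group measurement over the vehicle-control measurement.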

[1] = dose: 100.0 mg/kg/injection, schedule: Q04DX003 (ip), vehicle: saline with Tween-80
[2] = dose: 200.0 mg/kg/injection, schedule: Q04DX003 (ip), vehicle: saline with Tween-80
[3] = dose: 50.0 mg/kg/injection, schedule: Q01DX001 (ip), vehicle: saline
[4] = dose: 100.0 mg/kg/injection, schedule: Q01DX001 (ip), vehicle: saline
[5] = dose: 200.0 mg/kg/injection, schedule: Q01DX001 (ip), vehicle: saline
[6] = dose: 400.0 mg/kg/injection, schedule: Q01DX001 (ip), vehicle: saline
[7] = dose: 100.0 mg/kg/injection, schedule: Q04DX003 (ip), vehicle: saline
[8] = dose: 200.0 mg/kg/injection, schedule: Q04DX003 (ip), vehicle: saline
[9] = dose: 400.0 mg/kg/injection, schedule: Q04DX003 (ip), vehicle: saline
[10] = dose: 100.0 mg/kg/injection, schedule: Q01DX009 (ip), vehicle: Klucel (hydroxypropylcellulose) (HPC)
[11] = dose: 100.0 mg/kg/injection, schedule: Q04DX003 (ip), vehicle: Klucel (hydroxypropylcellulose) (HPC)
[12] = dose: 200.0 mg/kg/injection, schedule: Q04DX003 (ip), vehicle: Klucel (hydroxypropylcellulose) (HPC)
[13] = dose: 400.0 mg/kg/injection, schedule: Q04DX003 (ip), vehicle: Klucel (hydroxypropylcellulose) (HPC)

Measured: T/C

CN=C(NC)c1ccc(NC(=O)c2ccc(C(=O)Nc3ccc(C(=NC)NC)c(C)c3)cc2)cc1C
inactive: dose: 4.4 mg/kg/injection, schedule: Q01DX Z (ip), vehicle: carboxymethylcellulose (CMC) 98 % of control | dose: 6.6 mg/kg/injection, schedule: Q01DX Z (ip), vehicle: carboxymethylcellulose (CMC) 102 % of control | dose: 10.0 mg/kg/injection, schedule: Q01DX Z (ip), vehicle: carboxymethylcellulose (CMC) 100 % of control | dose: 15.0 mg/kg/injection, schedule: Q01DX Z (ip), vehicle: carboxymethylcellulose (CMC) 107 % of control and 108 % of control and 112 % of control | dose: 22.5 mg/kg/injection, schedule: Q01DX Z (ip), vehicle: carboxymethylcellulose (CMC) 111 % of control | dose: 30.0 mg/kg/injection, schedule: Q01DX Z (ip), vehicle: carboxymethylcellulose (CMC) 96 % of control | dose: 35.0 mg/kg/injection, schedule: Q01DX Z (ip), vehicle: carboxymethylcellulose (CMC) 100 % of control

c1ccc(CCNCc2ccc(CNCCc3ccccc3)cc2)cc1
inactive: [1] 93 % of control | [2] 90 % of control

[O-]/[N+](=C\c1cccc(O)c1)c1ccccc1
inactive: [3] 102 % of control | [4] 106 % of control | [5] 102 % of control | [6] 100 % of control

NC(=O)C(O)C(O)C(O)C(O)CCl (centres undefined)
inactive: dose: 50.0 mg/kg/injection, schedule: Q04DX002 (ip), vehicle: saline with Tween-80 96 % of control | dose: 100.0 mg/kg/injection, schedule: Q04DX002 (ip), vehicle: saline with Tween-80 93 % of control | dose: 200.0 mg/kg/injection, schedule: Q04DX002 (ip), vehicle: saline with Tween-80 98 % of control | dose: 400.0 mg/kg/injection, schedule: Q04DX002 (ip), vehicle: saline with Tween-80 96 % of control

O=C1c2cccc(O)c2C(=O)c2c(O)cccc21
inactive: dose: 100.0 mg/kg/injection, schedule: Q01DX009 (ip), vehicle: saline 94 % of control | [7] 93 % of control | dose: 200.0 mg/kg/injection, schedule: Q01DX009 (ip), vehicle: saline 97 % of control | [8] 97 % of control | dose: 400.0 mg/kg/injection, schedule: Q01DX009 (ip), vehicle: saline 103 % of control | [9] 97 % of control

Cc1ccc(S(=O)(=O)CC(=O)NC(C)C)cc1
inactive: [1] 100 % of control | [2] 110 % of control | dose: 400.0 mg/kg/injection, schedule: Q04DX003 (ip), vehicle: saline with Tween-80 97 % of control

CC(C)(C)c1ccc(S(=O)(=O)Cl)cc1
inactive: dose: 100.0 mg/kg/injection, schedule: Q04DX002 (ip), vehicle: Klucel (hydroxypropylcellulose) (HPC) 97 % of control | dose: 200.0 mg/kg/injection, schedule: Q04DX002 (ip), vehicle: Klucel (hydroxypropylcellulose) (HPC) 104 % of control | dose: 400.0 mg/kg/injection, schedule: Q04DX002 (ip), vehicle: Klucel (hydroxypropylcellulose) (HPC) 90 % of control

CCOC(=O)C1=NC(c2ccccc2)N(c2ccccc2)C1c1ccccc1 (centres undefined)
inactive: [3] 100 % of control | [4] 100 % of control | [5] 100 % of control | [6] 103 % of control

CCN(CC)Cc1cccc(Nc2cc(C)nc(/N=C(\N)Nc3ccc(Cl)c(Cl)c3)n2)c1
inactive: dose: 75.0 mg/kg/injection, schedule: Q01DX001 (ip), vehicle: other 98 % of control | dose: 150.0 mg/kg/injection, schedule: Q01DX001 (ip), vehicle: other 95 % of control | dose: 300.0 mg/kg/injection, schedule: Q01DX001 (ip), vehicle: other 95 % of control

O=P(c1ccccc1)(c1ccccc1)N1CC1c1ccccc1 (centres undefined)
inactive: dose: 75.0 mg/kg/injection, schedule: Q01DX001 (ip), vehicle: carboxymethylcellulose (CMC) 96 % of control | dose: 150.0 mg/kg/injection, schedule: Q01DX001 (ip), vehicle: carboxymethylcellulose (CMC) 95 % of control | dose: 300.0 mg/kg/injection, schedule: Q01DX001 (ip), vehicle: carboxymethylcellulose (CMC) 90 % of control

COc1ccc2nc(NC3=NCCO3)sc2c1
inactive: [10] 98 % of control | dose: 200.0 mg/kg/injection, schedule: Q01DX009 (ip), vehicle: Klucel (hydroxypropylcellulose) (HPC) 94 % of control | dose: 400.0 mg/kg/injection, schedule: Q01DX009 (ip), vehicle: Klucel (hydroxypropylcellulose) (HPC) 93 % of control

Cc1ccc(OC(=O)C2=C(C(=O)Oc3ccc(C)cc3)CCC2)cc1
inactive: dose: 75.0 mg/kg/injection, schedule: Q01DX001 (ip), vehicle: saline 95 % of control | dose: 150.0 mg/kg/injection, schedule: Q01DX001 (ip), vehicle: saline 97 % of control | dose: 300.0 mg/kg/injection, schedule: Q01DX001 (ip), vehicle: saline 95 % of control

OC1/C(=C/c2ccco2)CCC2CCCCC21 (centres undefined)
inactive: dose: 100.0 mg/kg/injection, schedule: Q01DX001 (ip), vehicle: Klucel (hydroxypropylcellulose) (HPC) 101 % of control | dose: 200.0 mg/kg/injection, schedule: Q01DX001 (ip), vehicle: Klucel (hydroxypropylcellulose) (HPC) 98 % of control | dose: 400.0 mg/kg/injection, schedule: Q01DX001 (ip), vehicle: Klucel (hydroxypropylcellulose) (HPC) 90 % of control

Oc1ccccc1C=NC1CCCCC1.Oc1ccccc1C=NC1CCCCC1.[Ni+2]
inactive: [11] 96 % of control | [7] 94 % of control | [12] 92 % of control | [8] 96 % of control | [13] 90 % of control

CS(=O)(=O)OCC(=O)NCCNC(=O)COS(C)(=O)=O
inactive: dose: 25.0 mg/kg/injection, schedule: Q01DX Z (ip), vehicle: saline 109 % of control | dose: 33.0 mg/kg/injection, schedule: Q01DX Z (ip), vehicle: carboxymethylcellulose (CMC) 113 % of control and 120 % of control | dose: 47.0 mg/kg/injection, schedule: Q01DX Z (ip), vehicle: carboxymethylcellulose (CMC) 122 % of control | dose: 50.0 mg/kg/injection, schedule: Q01DX015 (ip), vehicle: saline 108 % of control and 122 % of control | dose: 50.0 mg/kg/injection, schedule: Q01DX Z (ip), vehicle: carboxymethylcellulose (CMC) 104 % of control | dose: 50.0 mg/kg/injection, schedule: Q01DX Z (ip), vehicle: saline 109 % of control | dose: 50.0 mg/kg/injection, schedule: Q04DX003 (ip), vehicle: carboxymethylcellulose (CMC) 111 % of control | dose: 66.0 mg/kg/injection, schedule: Q01DX Z (ip), vehicle: carboxymethylcellulose (CMC) 106 % of control | dose: 75.0 mg/kg/injection, schedule: Q01DX Z (ip), vehicle: carboxymethylcellulose (CMC) 120 % of control | dose: 100.0 mg/kg/injection, schedule: Q01DX015 (ip), vehicle: saline 114 % of control | dose: 100.0 mg/kg/injection, schedule: Q01DX Z (ip), vehicle: saline 115 % of control | dose: 100.0 mg/kg/injection, schedule: Q04DX003 (ip), vehicle: carboxymethylcellulose (CMC) 110 % of control | dose: 115.0 mg/kg/injection, schedule: Q01DX Z (ip), vehicle: carboxymethylcellulose (CMC) 120 % of control | dose: 175.0 mg/kg/injection, schedule: Q01DX Z (ip), vehicle: carboxymethylcellulose (CMC) 118 % of control | dose: 200.0 mg/kg/injection, schedule: Q04DX003 (ip), vehicle: carboxymethylcellulose (CMC) 119 % of control | [8] 111 % of control | dose: 225.0 mg/kg/injection, schedule: Q01DX Z (ip), vehicle: carboxymethylcellulose (CMC) 92 % of control | dose: 400.0 mg/kg/injection, schedule: Q01DX Z (ip), vehicle: carboxymethylcellulose (CMC) 102 % of control | dose: 400.0 mg/kg/injection, schedule: Q01DX Z (ip), vehicle: saline 105 % of control | [9] 116 % of control | dose: 800.0 mg/kg/injection, schedule: Q04DX003 (ip), vehicle: saline 116 % of control
active: dose: 105.0 mg/kg/injection, schedule: Q01DX Z (ip), vehicle: carboxymethylcellulose (CMC) 154 % of control | dose: 180.0 mg/kg/injection, schedule: Q01DX009 (ip), vehicle: saline 168 % of control | dose: 256.0 mg/kg/injection, schedule: Q01DX009 (ip), vehicle: saline 161 % of control and 169 % of control | dose: 400.0 mg/kg/injection, schedule: Q01DX015 (ip), vehicle: saline 162 % of control

CCC(Br)C(=O)Nc1c(C)cccc1Cl (centres undefined)
inactive: dose: 25.0 mg/kg/injection, schedule: Q01DX009 (ip), vehicle: Klucel (hydroxypropylcellulose) (HPC) 97 % of control | dose: 50.0 mg/kg/injection, schedule: Q01DX009 (ip), vehicle: Klucel (hydroxypropylcellulose) (HPC) 98 % of control | [10] 94 % of control and 101 % of control | [11] 97 % of control | [12] 95 % of control | [13] 97 % of control
